Measured values as given in ChEMBL document CHEMBL1148837, “Development of new pyrrolopyrimidine-based inhibitors of Janus kinase 3 (JAK3)” (Bioorg Med Chem Lett, 2007).

Tests used:
TF-1 [1] = experiment: cells; format: functional, cell-based; settings: Homo sapiens
Description: Inhibition of IL4-induced TF1 cell proliferation

TF-1 [2] = experiment: cells; format: functional, cell-based; settings: Homo sapiens; remark: listed apart in the source
Description: Inhibition of IL3-induced TF1 cell proliferation

Compound	IC50 (TF-1 [1]) [nM]	IC50 (TF-1 [2]) [nM]
C[C@H](Nc1nc(-n2cnc3ccncc32)nc2c1cc(C(=O)N1CCOCC1)n2C)c1ccccc1	670	1400
COC[C@H](C)Nc1nc(-n2cnc3ccncc32)nc2c1cc(C(=O)N1CCN(C)CC1)n2C	1160	4790
C[C@H](Nc1nc(-n2cnc3ccncc32)nc2c1cc(C(=O)NCCCN1CCOCC1)n2C)c1ccccc1	910	2790
COc1ccc(Cl)c(Nc2nc(-n3cnc4ccncc43)nc3c2cc(C(=O)N2CCN(C)CC2)n3C)c1	490	2200
C[C@H](Nc1nc(-n2cnc3ccncc32)nc2c1cc(C(=O)NCCN(C)C)n2C)c1ccccc1	460	1950

The next lines start with the values.

IC50 (TF-1 [1]) [nM]	IC50 (TF-1 [2]) [nM]	Compound
450	740	CONC(=O)c1cc2c(N[C@@H](C)c3ccccc3)nc(-n3cnc4ccncc43)nc2n1C
80	90	C[C@H](Nc1nc(-n2cnc3ccncc32)nc2c1cc(C(=O)N1CCN(C)CC1)n2C)c1ccccc1
